Assay results reported in PubChem BioAssay (NCI).
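Each compound was tested at five concentrations against cells in 96-well plates for 48 hours. Abbreviation: GI50, concentration required for 50% inhibition of growth. TGI is the concentration that stops growth completely.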

What was measured:
Assay in all cases: growth of human tumour cells (NCI), 48 h
OVCAR-8 ovarian = tested on: OVCAR-8 ovarian
HCT-116 colon = tested on: HCT-116 colon
LOX IMVI melanoma = tested on: LOX IMVI melanoma
HOP-92 NSCLC = tested on: HOP-92 NSCLC
ACHN renal = tested on: ACHN renal
KM12 colon = tested on: KM12 colon
HOP-62 NSCLC = tested on: HOP-62 NSCLC
MDA-MB-231 breast = tested on: MDA-MB-231 breast
CAKI-1 renal = tested on: CAKI-1 renal
DLD-1 colon = tested on: DLD-1 colon
KM20L2 colon = tested on: KM20L2 colon

Compound	TGI (OVCAR-8 ovarian) [µM]	TGI (HCT-116 colon) [µM]	TGI (LOX IMVI melanoma) [µM]	TGI (HOP-92 NSCLC) [µM]	TGI (ACHN renal) [µM]	TGI (KM12 colon) [µM]	TGI (HOP-62 NSCLC) [µM]	TGI (MDA-MB-231 breast) [µM]	TGI (CAKI-1 renal) [µM]	TGI (DLD-1 colon) [µM]	TGI (KM20L2 colon) [µM]	GI50 (HCT-116 colon) [µM]	GI50 (LOX IMVI melanoma) [µM]	GI50 (KM12 colon) [µM]	GI50 (HOP-62 NSCLC) [µM]	GI50 (MDA-MB-231 breast) [µM]
COc1ccc2nc(/C(N)=C\C#N)ccc2c1	> 100	> 100	> 100	> 100	> 100	> 100	> 100	> 100	> 100							
Cc1cc2c(O)c(c1)CN(CC(=O)O)Cc1cc(C)cc(c1O)CN(CC(=O)O)Cc1cc(C)cc(c1O)CN(CC(=O)O)C2	> 100	> 100	> 100	> 100	> 100	> 100	> 100	> 100	> 100							
O=C(c1ccncc1)n1nc(-c2ccccc2)c(N=Nc2ccccc2[N+](=O)[O-])c1-c1ccccc1	> 100	> 100		> 100		> 100	> 100		> 100	> 100						
CCC1=C(C(C)=O)[C@@H]2CCCCC[C@@H](C(=O)OC)C2C1=O (stereo not given in full)	> 100	> 100		> 100	> 100	> 100	> 100		> 100	> 100	> 100					
CN(C)/N=C(/c1nc2ccc(Cl)cc2[nH]c1=O)C(O)c1ccc(C(O)/C(=N\N(C)C)c2nc3ccc(Cl)cc3[nH]c2=O)cc1 (stereo not given)	> 100	> 100		> 100	> 100	> 100	> 100		> 100	> 100	> 100					
CCC(O)(Cc1ccc(OC)cc1)c1ccc(OC)cc1 (stereo not given)	> 100	> 100	> 100	> 100	> 100	> 100	> 100	> 100	> 100							
O=C1C=CC(=O)c2c(O)c(N3CCC[C@H]3CO)c(Cl)c(O)c21	> 6.11	3.3	4.34	3.13	4.53	> 6.06	> 10	6.48	3.57							
O=S(=O)(O)c1ccc(N=Nc2ccc(N=Nc3ccc(/C=C/c4ccc(N=[N+]([O-])c5ccc(/C=C/c6ccc(N=Nc7ccc(N=Nc8ccc(S(=O)(=O)O)cc8)cc7)cc6S(=O)(=O)O)c(S(=O)(=O)O)c5)cc4S(=O)(=O)O)c(S(=O)(=O)O)c3)cc2)cc1	> 100	> 100	> 100	> 100		> 100	> 100			> 100	> 100					
c1ccc2c(c1)Sc1nccc3ccnc-2c13	> 100	> 100	> 100	> 100	43.4	> 100	> 100	> 100	41							
C[C@]12CCC(=O)[C@@H](CCC3=CC(=O)C=CC3=O)[C@@H]1CCC2=O	> 69.5	> 50.5	39.3	> 100	32.5	32	> 100	49.2	27.7							
COc1cc2cc(C(=O)N3C[C@H](CCl)c4c3cc(N)c3ccccc43)[nH]c2c(OC)c1OC	> 50	0.6	0.0581	> 50	< 0.005	0.0922	0.112	0.0254	< 0.005			0.005	0.005	0.0115	0.005	0.005
OCCOCn1nncc1Cn1ncc2c(SCc3ccccc3)ncnc21	> 100	> 100	> 100	> 100	> 100	> 100	> 100	> 100	> 100							
NC(=O)c1csc(C2(O)COC(CO)C2O)n1 (stereo not given)	> 100	> 100	> 100	> 100	> 100	> 100	> 100	> 100	> 100							
N#CC1(O)CCCCCCCCCCC1	> 100	> 100	> 100	> 100	> 100	> 100	> 100	> 100	> 100							
O=c1c(Cc2ccc(Cl)cc2)nnc2sc(-c3ccc(-c4ccc(F)c(Cl)c4)o3)nn12	> 100	> 100	> 100	> 100	> 100	> 100	> 100	> 100	> 100							
O=P(O)(O)c1ccccc1Oc1ccccc1	> 100	> 100	> 100	> 100	> 100	> 100	> 100	> 100	> 100							
Cc1cc2ncn(C3CCCCO3)c2cc1C (stereo not given)	> 100	> 100	> 100	> 100	> 100	> 100	> 100	> 100	> 100							
Cn1c(=O)c(-c2ccccc2)c(O)c2ccccc21	> 100	> 100	> 100	> 100	> 100	> 100	> 100	> 100	> 100							
C1=C2C3=[N+](CCCCC3)CC2Cc2ccsc21 (stereo not given)	> 100	> 100	> 100	> 100	> 100	> 100	> 100	> 100	> 100							
CN(C)CC1CCC/C(=C\c2ccc(OC(=O)c3ccc(Cl)cc3)cc2)C1=O (stereo not given)	3.23	2.23	1.98	4.75	8.44	5.9	12.6	5.73	5.13							
COc1ccccc1C1Nn2c(nc3ccccc3c2=O)N1c1ccc(C)cc1 (stereo not given)	17	16	20.8	23.1	16.7	60.3	20.2	18.3	24.1							
CCn1c2ccc(C(=O)CCCN3CCCCC3)cc2c2cc(C(=O)CCCN3CCCCC3)ccc21	6.6	10.8	4.47	30.3	15.8	8.76	18.2	4.74	8.54							
